In patent publication US11691989B2, “Macrocyclic indoles as Mcl-1 inhibitors” (ASCENTAGE PHARMA (SUZHOU) CO., LTD., priority 2018, dated 2023):
≈ marks a conversion by molar mass, not a printed value. Read-outs that look alike come from different tables or passages of the source.

Legend:
[1] = molecular target: Mcl-1 protein (residues 171-323) (Homo sapiens (Human), UniProt Q07820); experiment: Inhibition of Mcl-1 by fluorescence polarization (FP) competitive binding assay with FAM-Bid tracer; conditions: 2 nM FAM-Bid, 20 nM Mcl-1, 30 min, read-out: Mc1-1 (FP)
Method in brief: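 Competitive FP binding of compounds against FAM-Bid tracer (final 2 nM) on Mcl-1 (final 20 nM) in PBS with 0.01% BGG and 0.01% Triton X-100, 5% final DMSO.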

[2] = system: OPM-2 cells; experiment: Cell viability assay (OPM-2 cells), CCK-8; assay type: cell-based; conditions: 5% FBS
Method in brief: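 OPM-2 myeloma cells (20000/well) incubated with serially diluted compound for 24 h at 37 °C, 5% CO2. Viability read by CCK-8 (4 h) absorbance at 450 nm, normalised to vehicle; IC50 from nonlinear regression.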

[3] = system: NCI-H929 cells; experiment: Cell viability assay (NCI-H929 cells), CCK-8; assay type: cell-based; conditions: 5% FBS
Method in brief: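 NCI-H929 cells (20000/well) exposed to serially diluted compounds for 24 h at 37 °C, 5% CO2. Viability by CCK-8, absorbance at 450 nm after 1-4 h, normalized to vehicle-treated cells. IC50 by nonlinear regression.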

[4] = Microsome clearance assay, mouse; assay type: in vitro ADME; conditions: 0.5 mg/ml protein, 1 mM NADPH, 60 minutes; for Mouse Liver Microsome Clint (μL/min/mg protein): mouse liver microsomes, 5 μM; for microsomal CLint at 5 μM: male, CD-1, mouse, pooled liver microsomes, pH 7.4, mouse liver microsomes, read-out: Mouse Liver Microsome Clint (μL/min/mg protein)
Method in brief: (§1)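 Pooled liver microsomes (human, male Wistar rat, male CD-1 mouse) at 0.5 mg/ml protein in 0.1M sodium phosphate pH 7.4 with 5 μM test compound and 1 mM NADPH, incubated 60 minutes. Reactions quenched in ice-cold methanol; supernatant analysed by LC/MS/MS (electrospray).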

[5] = Microsome clearance assay, rat; assay type: in vitro ADME; conditions: 0.5 mg/ml protein, 1 mM NADPH, 60 minutes; for Rat Liver Microsome Clint (μL/min/mg protein): rat liver microsomes, 5 μM; for microsomal CLint at 5 μM: male, Wister, rat, pooled liver microsomes, pH 7.4, rat liver microsomes, read-out: Rat Liver Microsome Clint (μL/min/mg protein)
Method in brief: as §1

[6] = Microsome clearance assay, human; assay type: in vitro ADME; conditions: 0.5 mg/ml protein, 1 mM NADPH, 60 minutes; for Human Liver Microsome Clint (μL/min/mg protein): human liver microsomes, 5 μM; for microsomal CLint at 5 μM: human, pooled liver microsomes, pH 7.4, human liver microsomes, read-out: Human Liver Microsome Clint (μL/min/mg protein)
Method in brief: as §1

[7] = system: MV-4-11 cells; experiment: MV-4-11 cell viability assay, CCK-8; assay type: cell-based
Description: MV-4-11 cells were obtained from American Type Culture Collection (ATCC). […]
The effect of representative Compounds of the Disclosure on cell viability was determined using Cell Counting Kit-8 (CCK-8) assay according to the manufacturer's instructions. 95 μL of MV-4-11 cell suspension (20000 cells/well) in culture medium were seeded into 96-well plates and cultured 4 hrs. Each tested compound was serially diluted in DMSO, then 5 μL of the compound or DMSO was diluted in 95 μL medium once more. At last, 5 μL of the compound dilution was added to the corresponding well of the cell plate. After the addition of the tested compound, the cells were incubated at 37° C. in an atmosphere of 5% CO2 for 24 hrs. At the end, 10 μL of CCK-8 solution was added to each well of the plate and incubated for 1-4 hrs. The plates were read at 450 nm on the microplate reader (BioTek Synergy 1MF). The readings were normalized to the vehicle cells, and the IC50 was calculated by nonlinear regression analysis using GraphPad Prism 6 software.

[8] = Kinetic solubility assay in PBS buffer; assay type: physicochemical; conditions: for solubility: PBS buffer, pH 6.5, aqueous buffer, thermodynamic from solid, read-out: Solubility (pH 6.5, μg/mL)
Description: Representative Compounds of the Disclosure were tested in a kinetic solubility assay in PBS buffer. PBS buffer was prepared by dissolving 4.86 g of potassium dihydrogen phosphate and 5.09 g of disodium hydrogen phosphate dodecahydrate in 1 L of ultrapure water (final pH 6.5). 0.5 mg of test sample was dissolved in 1 mL of methanol and the stock solution was transferred into 2 mL EP tube, and evaporated at 50° C. for 3 h. To the tube was added 1 mL of PBS buffer and the mixture was stirred and shaken for 1-2 h. The solution was allowed to stand overnight and then filtered before HPLC analysis. Another 1.5 mg of the sample was dissolved in 3 mL of methanol to prepare a calibration curve with a series of concentration range of 5-500 μM. The solubility of each sample was determined by the measured peak area in HPLC.

[9] = Homo sapiens, MV4-11, 24 h, read-out: MV-4-11 IC50 (5% FBS, nM), MV-4-11 cells, 5% FBS, 24 hrs, CCK-8

Mcl-1 protein (residues 171-323), sequence (Q07820 171-323): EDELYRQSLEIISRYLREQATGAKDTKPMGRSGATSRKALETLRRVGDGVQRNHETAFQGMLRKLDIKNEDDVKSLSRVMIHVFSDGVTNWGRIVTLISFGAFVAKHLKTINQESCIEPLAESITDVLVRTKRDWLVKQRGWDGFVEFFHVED

| Compound | IC50 [1] | IC50 ([2]; 24 hours) | IC50 ([3]; 24 hrs) | Mouse Liver Microsome Clint (μL/min/mg protein) [4] | Rat Liver Microsome Clint (μL/min/mg protein) [5] | Human Liver Microsome Clint (μL/min/mg protein) [6] | IC50 ([7]; read-out: MV-4-11 IC50 (5% FBS), MV-4-11 cells, 5% FBS, 24 hrs, CCK-8) | solubility [8] | IC50 ([2]; Homo sapiens, OPM-2, 24 h) | IC50 ([3]; Homo sapiens, NCI-H929, 24 h) | microsomal CLint at 5 μM [4] | microsomal CLint at 5 μM [5] | microsomal CLint at 5 μM [6] | IC50 [7, 9] | Solubility (pH 6.5, μg/mL) ([8]; PBS buffer pH 6.5) |
| --- | --- | --- | --- | --- | --- | --- | --- | --- | --- | --- | --- | --- | --- | --- | --- |
| Cc1c(C(=O)O)n2c3ccc(Cl)c(c13)-c1c(nn(C)c1C)CSCc1cc(n(C)n1)CSc1cc(c3ccc(F)cc3c1)OCCC2 [Cpd. No. 14, (Z)-1^5-chloro-9^6-fluoro-1^3,2^1,2^5,6^1-tetramethyl-1^1H,2^1H,6^1E-10-oxa-4,8-dithia-1(4,1)-indola-2(4,3),6(3,5)-dipyrazola-9(3,1)-naphthalenacyclotridecaphane-1^2-carboxylic acid] | 19 nM | 52 nM | 28 nM | 28.6 μL/min/mg protein | 27.2 μL/min/mg protein | 5.0 μL/min/mg protein | 28 nM | 10 µg/mL (≈ 14.5 µM) |  |  |  |  |  |  |  |
| Cc1c2c(nn1C)CSCc1cc(n(C)n1)CSc1cc(c3ccccc3c1)OCCCc1c(C(=O)O)n(C)c3c-2c(Cl)ccc13 [AZD5991, (Z)-16-chloro-11,21,25,61-tetramethyl-11H,21H,61H-10-oxa-4,8-dithia-1(7,3)-indola-2(4,3),6(3,5)-dipyrazola-9(3,1)-naphthalenacyclotridecaphane-12-carboxylic acid, reference compound] |  |  |  |  |  |  |  | < 1 µg/mL | 148 nM | 47 nM | 20.8 µL/min/mg | 16.6 µL/min/mg | < 2.8 µL/min/mg | 29 nM |  |
| Cc1c(C(=O)O)n2c3ccc(Cl)c(c13)-c1c(nn(C)c1C)CSCc1cc(n(C)n1)CSc1cc(c3ccccc3c1)OCCC2 [Cpd. No. 5, (Z)-1^5-chloro-1^3,2^1,2^5,6^1-tetramethyl-1^1H,2^1H,6^1H-10-oxa-4,8-dithia-1(4,1)-indola-2(4,3), 6(3,5)-dipyrazola-9(3,1)-naphthalenacyclotridecaphane-1^2-carboxylic acid] | 17 nM | 192 nM | 33 nM | 48.4 μL/min/mg protein | 58.8 μL/min/mg protein | 15.8 μL/min/mg protein |  |  |  |  |  |  |  | 43 nM | 2 μg/mL |
| Cc1c(C(=O)O)n2c3ccc(Cl)c(c13)-c1c(nn(C)c1C(F)F)CSCc1cc(n(C)n1)CSc1cc(c3ccc(F)cc3c1)OCCC2 [Cpd. No. 18, (Z)-1^5-chloro-2^5-(difluoromethyl)-9^6-fluoro-1^3,2^1,6^1-trimethyl-1^1H,2^1H,6^1H-10-oxa-4,8-dithia-1(4,1)-indola-2(4,3),6(3,5)-dipyrazola-9(3,1)-naphthalenacyclotridecaphane-1^2-carboxylic acid] | 15 nM |  |  |  |  |  |  | < 1 µg/mL | 189 nM | 63 nM | 42 µL/min/mg | 22.6 µL/min/mg | 22.2 µL/min/mg | 93 nM |  |
